Reference: US20240238310A1, “MODULATION OF SEX STEROID HORMONE PRODUCTION AND ACTIVITY FOR TREATING AND PREVENTING HERNIAS” (Northwestern University, priority 2020, published 2024)
Entries after “also recorded” stand apart in the source; their conditions may differ.

Test system: Arom^hum mice
Assay: Reversal of established scrotal hernias and LAMT fibrosis/atrophy in Arom^hum mice
Assay type: in vivo, mouse
Description: FIG. 16. […] Arom^hum mice with small to moderate size of hernias were treated with placebo or letrozole for 12 weeks. (A) Schematic diagram depicts the schedule of drug administration. (B) The area of scrotal hernia in Arom^hum mice. (C) Representative photomicrographs of Masson's trichrome-stained LAMT sections of WT and Arom^hum mice. Quantification of the percentage of connective tissue or fibrotic area (D) or myofiber area (E) in WT and Arom^hummice. 10 representative high-power fields were analyzed in each tissue. One-way ANOVA with Tukey's multiple comparison test, **p<0.01, ***p<0.001. Scale bars, […]. n=5 mice per group.
FIG. 17. […] Arom^hum mice with small to moderate size of hernias were treated with placebo or letrozole for 3 weeks. (A) Schematic diagram depicts the schedule of drug administration. (B) The area of scrotal hernia in Arom^hum mice.
FIG. 18. E2/ER antagonist fulvestrant reverses the large size of scrotal hernias and rescues LAMT fibrosis and myocyte atrophy in Arom^hum mice. Arom^hum mice with large size of hernias were treated with placebo or fulvestrant for 12 weeks. (A) Schematic diagram depicts the schedule of drug administration. (B) The area of scrotal hernia in Arom^hum mice. (C) Representative photomicrographs of Masson's trichrome-stained LAMT sections of WT and Arom^hum mice. Quantification of the percentage of connective tissue or fibrotic area (D) in WT and Arom^hum mice. 10 representative high-power fields were analyzed in each tissue. (E) Hydroxyproline content in LAMT of WT and Arom^hum mice treated with fulvestrant. One-way ANOVA with Tukey's multiple comparison test, ***p<0.001, ****p<0.0001. n=5 mice per group.
(§1) FIG. 19. Aromatase inhibitor letrozole reverses the large size of scrotal hernias in Arom^hum mice. Arom^hum mice with large size of hernias were treated with placebo or letrozole for 12 weeks. (A) Schematic diagram depicts the schedule of drug administration. (B) The area of scrotal hernia in Arom^hum mice.
as §1, with “20. E2/ER antagonist raloxifene” for “19. Aromatase inhibitor letrozole”, “raloxifene” for “letrozole”, “3” for “12”
We treated Arom^hum mice with letrozole for 12 weeks. […] Raloxifene is a selective estrogen receptor modulator (SERM) and is currently used to prevent and treat osteoporosis in postmenopausal women.
We treated Arom^hum mice with fulvestrant for 12 weeks when the hernia area was over 200 mm^2. Large hernias were completely disappeared after 3- to 4-week of fulvestrant administration. […] We measured the total amount of collagen (largely type I and III), a major component of ECM, through measuring the content of hydroxyproline(1).

## C[C@]12CC[C@@H]3c4ccc(O)cc4C[C@@H](CCCCCCCCC[S+]([O-])CCCC(F)(F)C(F)(F)F)[C@H]3[C@@H]1CC[C@@H]2O (some centres unmarked) [fulvestrant]
Arom^hum mice with large hernias, fulvestrant 12 weeks, FIG. 18C
  myofiber atrophy / myofiber cross-section area: completely reversed myofiber atrophy; also recorded: increase in myofiber cross-section area
Arom^hum mice with large hernias, fulvestrant 12 weeks, FIG. 18E
  total collagen content in LAMT (hydroxyproline assay): decreased to normal levels similar to WT mice
Arom^hum mice with large hernias, fulvestrant 12 weeks, FIGS. 18C and D
  established fibrosis in the LAMT: completely reversed with fulvestrant treatment; also recorded: decrease in muscle fibrosis
Arom^hum mice, fulvestrant alone for 12 weeks, started when hernia area was over 200 mm^2, FIG. 18
  reversal of large and severe hernias (>200 mm^2): can reverse large and severe hernias
Arom^hum mice, hernia area over 200 mm^2
  time of administration after which large hernias completely disappeared: 3- to 4 week
